According to patent US20260207615A1, “FLUOROPYRIDOPYRIMIDINE AND FLUOROQUINAZOLINE DERIVATIES AND METHODS OF USE THEREOF” (Frontier Medicines Corporation, priority 2022, published 2026):

Target: T1, KRAS G12C and cRAF interaction (Homo sapiens, UniProt P01116, C118S/C51S/C80L/G12C)
T1 construct: truncated version comprising amino acids 1-169
Assay: Inhibition of KRAS G12C and cRAF binding (AlphaScreen)
Format: biochemical
Conditions: KRAS G12C (Cys-light, aa 1-169) preloaded with GMPPNP, cRaf RBD (aa 50-131), 2 hours incubation
Procedure: The AlphaScreen technology was used to determine IC50s for compound inhibition of KRAS G12C (present as the Cys-light (C51S, C80L and C118S), truncated version comprising amino acids 1-169) and cRAF interaction. Compounds were diluted in 100% DMSO and each compound concentration was spotted at 200 nl/well onto low volume, white 384 well plates. The KRAS G12C contained a biotin-AviTag and the cRaf, as Ras-binding domain (amino acids 50-131, RBD), was GST-tagged. KRAS G12C was preloaded with the GTP analogue Guanosine 5′-[β,γ-imido]triphosphate (GMPPNP). The KRAS G12C was diluted in 25 mM Hepes, pH 7.4, 150 mM NaCl, 5 mM MgCl2, 0.01% TritonX-100 and 10 μM GMPPNP and added at 10 μl/well to compound-spotted plates resulting in a DMSO concentration of 2%. Plates were incubated for 2 hours. A mixture of RBD and the AlphaScreen streptavidin donor and glutathione acceptor beads diluted in 25 mM Hepes, pH 7.4, 150 mM NaCl, 5 mM MgCl2, 0.01% TritonX-100 and 2% DMSO was then added at 10 μl/well and incubated for 60-90 minutes before the samples were read for emission at 570 nm after excitation of the donor beads at 680 nm. All incubations were performed at room temperature. The final top compound concentration was 50 μM with 1:3 titrations for 10-point dose response curves. Final assay conditions were 0.5 nM KRAS G12C, 0.75 nM RBD and 5 μg/ml each of AlphaScreen donor and acceptor beads. IC50S were determined using nonlinear regression fit of [inhibitor] vs. response (4 parameters).
A counter assay was also set up to rule out inhibitors of the AlphaScreen technology itself. Compound plates were incubated for 2 hours as above with buffer only.
The AlphaScreen beads were added as above except biotin-AviTag-GST was substituted for the RBD. Samples were read and analyzed as above.

T1 sequence (P01116 1-169 isoform P01116-2 G12C/C51S/C80L/C118S): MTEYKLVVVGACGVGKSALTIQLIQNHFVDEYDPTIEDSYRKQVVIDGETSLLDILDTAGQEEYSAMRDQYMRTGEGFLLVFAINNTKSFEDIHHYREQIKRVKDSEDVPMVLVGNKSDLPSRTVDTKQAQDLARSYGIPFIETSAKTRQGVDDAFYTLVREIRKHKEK

SMILES	IC50 [nM]
O=C(/C=C/CN1[C@@H]2CC[C@H]1COC2)N1CCN(c2nc(OCC34CCCN3CCC4)nc3c(F)c(-c4cccc5cccc(Cl)c45)ncc23)CC12COC2 [Example 36, (E)-4-((1R,5S)-3-oxa-8-azabicyclo[3.2.1]octan-8-yl)-1-(8-(7-(8-chloronaphthalen-1-yl)-8-fluoro-2-((tetrahydro-1H-pyrrolizin-7a(5H)-yl)methoxy)pyrido[4,3-d]pyrimidin-4-yl)-2-oxa-5,8-diazaspiro[3.5]nonan-5-yl) but-2-en-1-one]	< 10
C=CC(=O)N1CCN(c2nc(OC[C@@]34CCCN3C[C@H](F)C4)nc3c(F)c(-c4ccc(F)c5sc(N)nc45)c(Cl)cc23)C[C@@]12CCOC2 [Example 91]	100 to 500
O=C(/C=C/CN1[C@@H]2CC[C@H]1COC2)N1CCN(c2nc(OC[C@@]34CCCN3C[C@H](F)C4)nc3c(F)c(-c4cc(O)cc(Cl)c4C4CC4)ncc23)CC12COC2 [Example 29, (E)-4-((1R,5S)-3-oxa-8-azabicyclo[3.2.1]octan-8-yl)-1-(8-(7-(3-chloro-2-cyclopropyl-5-hydroxyphenyl)-8-fluoro-2-(((2R,7aS)-2-fluorotetrahydro-1H-pyrrolizin-7a(5H)-yl)methoxy)pyrido[4,3-d]pyrimidin-4-yl)-2-oxa-5,8-diazaspiro[3.5]nonan-5-yl) but-2-en-1-one]	< 10
O=C(/C=C/CN1[C@@H]2CC[C@H]1COC2)N1CCN(c2nc(OC[C@@]34CCCN3C[C@H](F)C4)nc3c(F)c(-c4cccc(Cl)c4C(F)(F)F)ncc23)CC12COC2 [Example 56, (E)-4-((1R,5S)-3-oxa-8-azabicyclo[3.2.1]octan-8-yl)-1-(8-(7-(3-chloro-2-(trifluoromethyl)phenyl)-8-fluoro-2-(((2R,7aS)-2-fluorotetrahydro-1H-pyrrolizin-7a(5H)-yl)methoxy)pyrido[4,3-d]pyrimidin-4-yl)-2-oxa-5,8-diazaspiro[3.5]nonan-5-yl) but-2-en-1-one]	< 10
C=CC(=O)N1CCN(c2nc(OC[C@@]34CCCN3C[C@H](F)C4)nc3c(F)c(-c4n[nH]c5cccc(Cl)c45)ncc23)CC12COC2 [Example 75]	≥ 500
C=CC(=O)N1[C@@H](C)CN(c2nc(OC[C@@]34CCCN3C[C@H](F)C4)nc3c(F)c(-c4cccc5cccc(Cl)c45)ncc23)CC12COC2 [Example 74]	≥ 500
C=CC(=O)N1CCN(c2nc(OC[C@@]34CCCN3C[C@H](F)C4)nc3c(F)c(-c4cc(O)cc(Cl)c4C(F)(F)F)ncc23)CC12COC2 [Example 54, 1-(8-(7-(3-chloro-5-hydroxy-2-(trifluoromethyl)phenyl)-8-fluoro-2-(((2R,7aS)-2-fluorotetrahydro-1H-pyrrolizin-7a(5H)-yl)methoxy)pyrido[4,3-d]pyrimidin-4-yl)-2-oxa-5,8-diazaspiro[3.5]nonan-5-yl) prop-2-en-1-one]	< 10
CN(C)C/C=C/C(=O)N1CCN(c2nc(OC[C@@]34CCCN3C[C@H](F)C4)nc3c(F)c(-c4cc(O)cc(Cl)c4C4CC4)ncc23)CC12COC2 [Example 55, (E)-1-(8-(7-(3-chloro-2-cyclopropyl-5-hydroxyphenyl)-8-fluoro-2-(((2R,7aS)-2-fluorotetrahydro-1H-pyrrolizin-7a(5H)-yl)methoxy)pyrido[4,3-d]pyrimidin-4-yl)-2-oxa-5,8-diazaspiro[3.5]nonan-5-yl)-4-(dimethylamino)but-2-en-1-one]	< 10
C=CC(=O)N1CC(C)N(c2nc(OC[C@@]34CCCN3C[C@H](F)C4)nc3c(F)c(-c4cccc5cccc(Cl)c45)ncc23)CC12COC2 (some centres unmarked) [Example 65]	10 to 100
C=CC(=O)N1CCN(c2nc(OC[C@@]34CCCN3C[C@H](F)C4)nc3c(F)c(-c4ccc(F)c5sc(N)nc45)c(Cl)cc23)CC12CCOC2 (some centres unmarked) [Example 86]	100 to 500
C=CC(=O)N1CCN(c2nc(OC[C@@]34CCCN3C[C@H](F)C4)nc3c(F)c(-c4cc(O)cc(Cl)c4C4CC4)c(Cl)cc23)CC12COC2 [Example 78, 1-(8-(6-chloro-7-(3-chloro-2-cyclopropyl-5-hydroxyphenyl)-8-fluoro-2-(((2R,7aS)-2-fluorotetrahydro-1H-pyrrolizin-7a(5H)-yl)methoxy)quinazolin-4-yl)-2-oxa-5,8-diazaspiro[3.5]nonan-5-yl) prop-2-en-1-one]	< 10
C=CC(=O)N1CCN(c2nc(OC[C@@]34CCCN3C[C@H](F)C4)nc3c(F)c(-c4cccc5cccc(Cl)c45)ncc23)CC12CCOC2 (some centres unmarked) [Example 84]	100 to 500

Next, values leading:

IC50 [nM]	SMILES
< 10	O=C(/C=C/CN1CC2CC(C1)O2)N1CCN(c2nc(OC[C@@]34CCCN3C[C@H](F)C4)nc3c(F)c(-c4cccc5ccc(F)c(F)c45)ncc23)CC12COC2 [Example 20, (E)-4-(6-oxa-3-azabicyclo[3.1.1]heptan-3-yl)-1-(8-(7-(7,8-difluoronaphthalen-1-yl)-8-fluoro-2-(((2R,7aS)-2-fluorotetrahydro-1H-pyrrolizin-7a(5H)-yl)methoxy)pyrido[4,3-d]pyrimidin-4-yl)-2-oxa-5,8-diazaspiro[3.5]nonan-5-yl) but-2-en-1-one]
< 10	C#Cc1c(F)ccc2cccc(-c3ncc4c(N5CCN(C(=O)C=C)C6(COC6)C5)nc(OC[C@@]56CCCN5C[C@H](F)C6)nc4c3F)c12 [Example 50, 1-(8-(7-(8-ethynyl-7-fluoronaphthalen-1-yl)-8-fluoro-2-(((2R,7aS)-2-fluorotetrahydro-1H-pyrrolizin-7a(5H)-yl)methoxy)pyrido[4,3-d]pyrimidin-4-yl)-2-oxa-5,8-diazaspiro[3.5]nonan-5-yl) prop-2-en-1-one]
< 10	C=CC(=O)N1CCN(c2nc(OC[C@@]34CCCN3C[C@H](F)C4)nc3c(F)c(-c4cccc5ccc(F)c(F)c45)ncc23)CC12COC2 [Example 35, 1-(8-(7-(7,8-difluoronaphthalen-1-yl)-8-fluoro-2-(((2R,7aS)-2-fluorotetrahydro-1H-pyrrolizin-7a(5H)-yl)methoxy)pyrido[4,3-d]pyrimidin-4-yl)-2-oxa-5,8-diazaspiro[3.5]nonan-5-yl) prop-2-en-1-one]
10 to 100	CN1CC[C@@H]1/C=C/C(=O)N1CCN(c2nc(OC[C@@]34CCCN3C[C@H](F)C4)nc3c(F)c(-c4cccc5cccc(Cl)c45)ncc23)CC12COC2 [Example 37, (E)-1-(8-(7-(8-chloronaphthalen-1-yl)-8-fluoro-2-(((2R,7aS)-2-fluorotetrahydro-1H-pyrrolizin-7a(5H)-yl)methoxy)pyrido[4,3-d]pyrimidin-4-yl)-2-oxa-5,8-diazaspiro[3.5]nonan-5-yl)-3-((R)-1-methylazetidin-2-yl) prop-2-en-1-one]
10 to 100	O=C(/C=C/CN1CCOCC1)N1CCN(c2nc(OC[C@@]34CCCN3C[C@H](F)C4)nc3c(F)c(-c4cccc5ccc(F)c(F)c45)ncc23)CC12COC2 [Example 18, (E)-1-(8-(7-(7,8-difluoronaphthalen-1-yl)-8-fluoro-2-(((2R,7aS)-2-fluorotetrahydro-1H-pyrrolizin-7a(5H)-yl)methoxy)pyrido[4,3-d]pyrimidin-4-yl)-2-oxa-5,8-diazaspiro[3.5]nonan-5-yl)-4-morpholinobut-2-en-1-one]
